Source: ChEMBL document CHEMBL2074355, “Biochemical mechanism of modulation of human P-glycoprotein (ABCB1) by curcumin I, II, and III purified from Turmeric powder” (Biochem Pharmacol, 2004)

How the values were obtained:
Format in all cases: functional, cell-based
[1] = target: T1, ATP-dependent translocase ABCB1 (Homo sapiens, UniProt P08183); assay: TP_TRANSPORTER: increase in Calcein-AM intracellular accumulation in human KB-V1 cells
[2] = target: T1, ATP-dependent translocase ABCB1; assay: TP_TRANSPORTER: increase in bodipy-FL-vinblastine intracellular accumulation in human KB-V1 cells
[3] = target: T1, ATP-dependent translocase ABCB1; assay: TP_TRANSPORTER: increase in Rhodamine 123 intracellular accumulation in human KB-V1 cells

Measured: Activity

T1 sequence (P08183 whole entry): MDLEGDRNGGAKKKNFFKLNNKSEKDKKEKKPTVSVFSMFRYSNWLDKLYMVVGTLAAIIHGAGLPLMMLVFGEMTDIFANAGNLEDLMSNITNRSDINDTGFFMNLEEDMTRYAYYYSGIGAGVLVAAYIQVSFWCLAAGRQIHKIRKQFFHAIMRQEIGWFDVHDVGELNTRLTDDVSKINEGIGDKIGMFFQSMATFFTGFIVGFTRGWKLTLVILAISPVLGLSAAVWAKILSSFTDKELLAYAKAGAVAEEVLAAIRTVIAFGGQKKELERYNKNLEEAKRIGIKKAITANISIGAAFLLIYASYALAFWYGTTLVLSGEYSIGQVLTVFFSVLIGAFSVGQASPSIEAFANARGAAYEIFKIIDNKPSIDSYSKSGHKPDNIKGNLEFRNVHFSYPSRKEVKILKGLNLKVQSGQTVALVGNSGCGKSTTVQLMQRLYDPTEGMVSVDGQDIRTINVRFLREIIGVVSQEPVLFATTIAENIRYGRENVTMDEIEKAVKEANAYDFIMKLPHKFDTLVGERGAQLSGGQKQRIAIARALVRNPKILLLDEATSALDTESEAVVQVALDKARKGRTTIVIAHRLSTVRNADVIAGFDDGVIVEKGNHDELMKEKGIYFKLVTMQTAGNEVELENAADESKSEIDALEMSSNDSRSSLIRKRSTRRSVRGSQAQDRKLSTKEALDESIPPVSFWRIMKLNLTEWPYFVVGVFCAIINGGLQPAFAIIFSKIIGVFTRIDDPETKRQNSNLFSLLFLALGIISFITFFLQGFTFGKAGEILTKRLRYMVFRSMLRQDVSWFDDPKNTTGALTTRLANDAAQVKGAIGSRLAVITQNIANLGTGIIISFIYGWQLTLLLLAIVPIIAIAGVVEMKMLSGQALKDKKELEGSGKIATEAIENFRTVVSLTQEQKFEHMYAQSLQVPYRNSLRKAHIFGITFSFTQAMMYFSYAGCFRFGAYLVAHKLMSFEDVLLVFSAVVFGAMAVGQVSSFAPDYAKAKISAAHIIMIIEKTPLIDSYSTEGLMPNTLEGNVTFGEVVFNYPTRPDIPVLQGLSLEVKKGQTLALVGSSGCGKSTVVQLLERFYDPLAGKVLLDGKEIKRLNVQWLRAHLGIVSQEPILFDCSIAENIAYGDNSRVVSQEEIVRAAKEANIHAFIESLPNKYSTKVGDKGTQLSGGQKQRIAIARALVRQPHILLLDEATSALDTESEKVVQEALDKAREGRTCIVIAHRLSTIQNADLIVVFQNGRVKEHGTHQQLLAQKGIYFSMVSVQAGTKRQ

COc1cc(/C=C/C(=O)CC(=O)/C=C/c2ccc(O)c(OC)c2)ccc1O [CURCUMIN]
inhibitor [+]: all assays above
